Laboratory results as given in the supplement of paper PMC4862054.
“And” between values parts separate entries of the source, which are not always exact repeats. Identical values can stand only once.

What was measured:
[1] = test system: MDA-MB-453; settings: 72 h
In short: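 EC50 is the value from a fitted percent-inhibition dose-response curve, censored at the highest concentration, and rows with zero drug sensitivity score were not kept. The underlying assay seeded breast cancer cell lines in 20 µl onto 384-well plates pre-loaded with compound in 5 µl medium for 72 h. Viability was then read by CellTiter-Blue fluorescence at 560/590 nm after 2 h at 37 °C, with each plate normalised to vehicle and a positive kill control.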

[2] = test system: BT-549; test: normalised viability (% of control), CellTiter-Blue; higher = more viable cells (about 100 = DMSO control); settings: incubation time: 72 h
Procedure: (§1)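 DSRT, CellTiter-Blue viability, 72 h incubation. Signal is normalised to DMSO and benzethonium chloride controls. Value is the normalised response at dose 3.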

[3] = test system: CAL-120; test: as above; settings: incubation time: 72 h
Procedure: as §1

[4] = test system: CAL-148; test: as above; settings: incubation time: 72 h
Procedure: as §1

[5] = test system: CAL-85-1; test: as above; settings: incubation time: 72 h
Procedure: as §1

[6] = test system: Hs578T; test: as above; settings: incubation time: 72 h
Procedure: as §1

[7] = test system: MDA-MB-436; test: as above; settings: incubation time: 72 h
Procedure: as §1

[8] = test system: MDA-MB-453; test: as above; settings: incubation time: 72 h
Procedure: as §1

[9] = test system: MFM-223; test: as above; settings: incubation time: 72 h
Procedure: as §1

[10] = test system: SK-BR-3; test: as above; settings: incubation time: 72 h
Procedure: as §1

[11] = test system: BT-474; test: drug sensitivity score (DSS), CellTiter-Blue viability (DSS (AUC-based score)); higher = stronger viability inhibition; extreme values may be limits of the assay; settings: incubation time: 72 h
Procedure: (§2)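 DSRT with the CellTiter-Blue (resazurin reduction) viability readout, fluorescence 560/590 nm, 72 h incubation. Plates were normalised to DMSO and benzethonium chloride controls. DSS is computed from the area under the fitted dose-response curve (5 or 9 concentrations).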

[12] = test system: BT-549; test: as above; settings: incubation time: 72 h
Procedure: as §2

[13] = test system: CAL-120; test: as above; settings: incubation time: 72 h
Procedure: as §2

[14] = test system: CAL-148; test: as above; settings: incubation time: 72 h
Procedure: as §2

[15] = test system: CAL-51; test: as above; settings: incubation time: 72 h
Procedure: as §2

[16] = test system: CAL-85-1; test: as above; settings: incubation time: 72 h
Procedure: as §2

[17] = test system: DU-4475; test: as above; settings: incubation time: 72 h
Procedure: as §2

[18] = test system: HCC1599; test: as above; settings: incubation time: 72 h
Procedure: as §2

[19] = test system: HCC1937; test: as above; settings: incubation time: 72 h
Procedure: as §2

[20] = test system: HDQ-P1; test: as above; settings: incubation time: 72 h
Procedure: as §2

[21] = test system: MDA-MB-231; test: as above; settings: incubation time: 72 h
Procedure: as §2

[22] = test system: MDA-MB-436; test: as above; settings: incubation time: 72 h
Procedure: as §2

[23] = test system: MDA-MB-468; test: as above; settings: incubation time: 72 h
Procedure: as §2

[24] = test system: MFM-223; test: as above; settings: incubation time: 72 h
Procedure: as §2

[25] = test system: SK-BR-3; test: as above; settings: incubation time: 72 h
Procedure: as §2

[26] = test system: MDA-MB-453; test: as above; settings: incubation time: 72 h
Procedure: as §2

Compound	EC50, CellTiter-Blue viability [1] [nM]	normalised viability ([2]; 100 nM)	normalised viability ([3]; 100 nM)	normalised viability ([4]; 10 nM)	drug sensitivity score [11]	drug sensitivity score [12]	drug sensitivity score [13]	drug sensitivity score [14]	drug sensitivity score [15]	drug sensitivity score [16]	drug sensitivity score [17]	drug sensitivity score [18]	drug sensitivity score [19]	drug sensitivity score [20]	drug sensitivity score [21]	drug sensitivity score [22]	drug sensitivity score [23]	drug sensitivity score [24]	drug sensitivity score [25]	drug sensitivity score [26]	further results
Cc1ccc(NC(=O)c2ccc(CN3CCN(C)CC3)cc2)cc1Nc1nccc(-c2cccnc2)n1 [Imatinib]	4540	102% and 109%	87.8% and 94.7%	84.3% and 89%	0	0	0	0	0	0	0	0	0	0	0	0	0	0	0	–	normalised viability ([5]; 10 nM): 102% and 92.3%; normalised viability ([6]; 100 nM): 95.2% and 103%; normalised viability ([7]; 100 nM): 94.8% and 107%; normalised viability ([8]; 10 nM): 104% and 94.3%; normalised viability ([9]; 100 nM): 94.8% and 92.4%; normalised viability ([10]; 100 nM): 86.2% and 75.6%
C/C(=C\c1csc(C)n1)[C@@H]1C[C@@H]2O[C@]2(C)CCC[C@H](C)[C@H](O)[C@@H](C)C(=O)C(C)(C)[C@@H](O)CC(=O)O1 [Patupilone]	4.4	–	–	–	18.2	22.4	19.8	24.8	20.4	24.6	22.3	1.08	27	12.2	28.5	15.4	15.3	12.7	23.7	22.5	normalised viability ([2]; 10 nM): 29.4%; normalised viability ([3]; 10 nM): 51.6%; normalised viability ([4]; 1 nM): 93.1%; normalised viability ([5]; 1 nM): 73.7%; normalised viability ([6]; 10 nM): 36.7%; normalised viability ([7]; 10 nM): 66.2%; normalised viability ([8]; 1 nM): 88.7%; normalised viability ([9]; 10 nM): 81.3%; normalised viability ([10]; 10 nM): 28.4%
Cc1cc2c(C(C)C)c(O)c(O)c(C=O)c2c(O)c1-c1c(C)cc2c(C(C)C)c(O)c(O)c(C=O)c2c1O [Gossypol]	–	–	–	–	–	–	–	–	–	–	–	–	–	–	–	–	–	–	–	–	normalised viability ([2]; 1000 nM): 95%; normalised viability ([3]; 1000 nM): 112%; normalised viability ([4]; 100 nM): 105%; normalised viability ([5]; 100 nM): 97.3%; normalised viability ([6]; 1000 nM): 100%; normalised viability ([7]; 1000 nM): 96.2%; normalised viability ([8]; 100 nM): 110%; normalised viability ([9]; 1000 nM): 96.5%; normalised viability ([10]; 1000 nM): 92.9%
CN(C)CCN1C(=O)c2cccc3cc(N)cc(c23)C1=O [Amonafide]	4230	94.9%	95.4%	85.2%	0.749	0.97	5.69	7.32	5.33	3.78	5.45	1.04	7.96	2.28	7.74	3.57	1.26	1.69	2.78	4.67	normalised viability ([5]; 10 nM): 91.6%; normalised viability ([6]; 100 nM): 84.8%; normalised viability ([7]; 100 nM): 104%; normalised viability ([8]; 10 nM): 94.1%; normalised viability ([9]; 100 nM): 87.5%; normalised viability ([10]; 100 nM): 76%
CO[C@H]1C[C@@H]2CC[C@@H](C)[C@@](O)(O2)C(=O)C(=O)N2CCCC[C@H]2C(=O)O[C@H]([C@H](C)C[C@@H]2CC[C@@H](OCCO)[C@H](OC)C2)CC(=O)[C@H](C)/C=C(\C)[C@@H](O)[C@@H](OC)C(=O)[C@H](C)C[C@H](C)/C=C/C=C/C=C/1C [Everolimus]	0.4	–	–	–	13.2 and 16	9.4 and 21.3	19.7 and 24.1	23 and 25.5	22.7 and 22.2	15 and 16.7	12.8 and 16.3	–	–	–	–	0	6.16 and 13.5	20 and 19.4	16.9 and 20.1	29.7 and 31.6	normalised viability ([2]; 10 nM): 66.5% and 53.2%; normalised viability ([3]; 10 nM): 55.3% and 43%; normalised viability ([4]; 1 nM): 65.8% and 59.4%; normalised viability ([5]; 1 nM): 71.8% and 59.9%; normalised viability ([6]; 10 nM): 42.7% and 48.8%; normalised viability ([7]; 10 nM): 86% and 80.2%; normalised viability ([8]; 1 nM): 44.9% and 39.9%; normalised viability ([9]; 10 nM): 55.1% and 49%; normalised viability ([10]; 10 nM): 48.1% and 51.2%
C[C@]12CC[C@H](O)CC1=CC[C@@H]1[C@@H]2CC[C@]2(C)C(c3cccnc3)=CC[C@@H]12 [Abiraterone]	–	–	–	–	0	0	0	0	0	0	0	0	0	0	0	0	0	0	0	0	normalised viability ([2]; 50 nM): 108%; normalised viability ([3]; 50 nM): 87.6%; normalised viability ([4]; 5 nM): 86.7%; normalised viability ([5]; 5 nM): 91.1%; normalised viability ([6]; 50 nM): 91.7%; normalised viability ([7]; 50 nM): 126%; normalised viability ([8]; 5 nM): 91.6%; normalised viability ([9]; 50 nM): 98%; normalised viability ([10]; 50 nM): 73.4%
O=C(O)CCCc1ccc(N(CCCl)CCCl)cc1 [Chlorambucil]	–	100%	109%	100%	0	0	0	0	0	0	0	0	6.58	0	0	0	4.32	0	0	0	normalised viability ([5]; 10 nM): 96%; normalised viability ([6]; 100 nM): 106%; normalised viability ([7]; 100 nM): 95.8%; normalised viability ([8]; 10 nM): 106%; normalised viability ([9]; 100 nM): 95.5%; normalised viability ([10]; 100 nM): 97.8%
